Results as given in patent US20100331330A1, “METHODS AND COMPOSITIONS FOR TREATING ISCHEMIC STROKE” (priority 2006, published 2010).

Columns and labels:
PPARγ = target: T1, PPARγ (Homo sapiens, UniProt P37231); conditions: cited from earlier work
T1 sequence (P37231 1-505): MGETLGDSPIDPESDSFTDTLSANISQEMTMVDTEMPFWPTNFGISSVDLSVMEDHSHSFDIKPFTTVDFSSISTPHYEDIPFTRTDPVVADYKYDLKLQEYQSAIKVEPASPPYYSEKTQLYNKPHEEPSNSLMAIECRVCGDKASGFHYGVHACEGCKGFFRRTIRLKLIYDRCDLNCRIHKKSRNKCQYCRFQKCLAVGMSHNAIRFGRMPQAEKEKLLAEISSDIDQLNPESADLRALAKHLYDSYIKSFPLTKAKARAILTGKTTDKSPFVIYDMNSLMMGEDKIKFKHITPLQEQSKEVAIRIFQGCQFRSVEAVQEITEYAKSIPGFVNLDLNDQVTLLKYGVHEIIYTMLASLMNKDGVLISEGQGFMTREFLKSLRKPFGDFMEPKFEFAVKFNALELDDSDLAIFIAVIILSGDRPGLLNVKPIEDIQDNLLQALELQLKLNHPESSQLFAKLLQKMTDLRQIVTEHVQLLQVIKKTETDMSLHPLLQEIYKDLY

hemorrhagic stroke = conditions: in vivo; cited from earlier work
[1] = test system: rodent models of cerebral ischemia; conditions: in vivo; cited from earlier work
[2] = test system: cultured cerebellar granule neurons; conditions: cited from earlier work
rat cerebellum = conditions: injection; bacterial lipopolysaccharide and interferon-γ; cited from earlier work
LPL mRNA = test: Lipoprotein lipase (LPL) mRNA by real time PCR after MCAO; format: in vivo, rat; conditions: rosiglitazone 0.1 mg/kg, pioglitazone 1.0 mg/kg; 24 h before and at time of 2 hour MCAO; tissue 24 h later
Text: At the time of sacrifice the animal was placed in an anesthesia chamber and exposed to 5% halothane, 30% oxygen, 65% nitrous oxide until it ceased breathing. The rat was the, processed for either histologic and immunocytochemical analysis or decapitated and the brain immediately dissected for mRNA isolation. Animals used for immunohistochemistry underwent intracardiac perfusion; the thoracic cavity was opened, a blunt needle placed through the left ventricle into the aorta and the right atrium cut. Animals were perfused through the heart, first with 0.1 M phosphate buffer and then with 4% paraformaldehyde (pH 7.4). The brain was removed from the rat and immersion fixed in 4% paraformaldehyde for an additional hour. Tissue was then transferred to 30% sucrose in phosphate buffer in order to cyroprotect it. Brains were mounted in OCT sectioning medium and frozen sections cut at either twenty microns (for infarct volume determination) or ten microns (for immunocytochemistry). Animals used in real time PCR experiments were decapitated after euthanasia and the brain quickly removed.
A 2 mm thick coronal slice of tissue through the area of maximal infarction was quickly homogenized in Trizol (Gibco BRL, Rockville, Md.). […] RNA was isolated using Life Technologies Protocol (Rockville, Md.), and cDNA synthesized from 1.5 μg of total RNA. […]

[3] = Physiologic parameters and cerebral blood perfusion monitoring during MCAO; format: in vivo, rat; conditions: during MCAO surgery
Description: MCAO was performed as previously described. […] The rats were then allowed to recover from anesthesia.
Male Wistar rats were anesthetized with halothane. Cerebral blood perfusion was monitored during surgery and reperfusion including the time of occlusion and the time of reperfusion. A small craniotomy was made midway between the corner of the eye and the external auditory canal. A laser Doppler probe (Perimed AB, Järfälla, Sweden) was placed such that its beam passed through the craniotomy and cerebral blood perfusion measured. Once the baseline measurement was obtained, MCAO was performed. Cerebral blood perfusion was monitored at the time of MCAO and at the time of reperfusion. There were no significant differences in cerebral blood flow reductions during MCAO for any of the treatment groups. Following completion of MCAO, animals were allowed to recover and returned to their cages.

ICAM mRNA = ICAM mRNA by real time PCR after MCAO; format: in vivo, rat; conditions: rosiglitazone 0.1 mg/kg or pioglitazone 1 mg/kg 24 h before and at time of 2 hour MCAO; sacrificed 24 h later
PPARγ-PPRE binding = target: T2, PPARγ-PPRE binding (Rattus norvegicus, UniProt O88275); test: Electrophoretic mobility shift assay of PPARγ DNA (PPRE) binding in brain nuclear extract; format: in vivo; conditions: both ipsilateral and contralateral hemispheres, 0.1 mg/kg 24 h before and at time of 2 hour MCAO
T2 construct: from tissue; host or cells: rat brain nuclear extract (ipsilateral and contralateral hemisphere after MCAO)
T2 sequence (O88275 1-505): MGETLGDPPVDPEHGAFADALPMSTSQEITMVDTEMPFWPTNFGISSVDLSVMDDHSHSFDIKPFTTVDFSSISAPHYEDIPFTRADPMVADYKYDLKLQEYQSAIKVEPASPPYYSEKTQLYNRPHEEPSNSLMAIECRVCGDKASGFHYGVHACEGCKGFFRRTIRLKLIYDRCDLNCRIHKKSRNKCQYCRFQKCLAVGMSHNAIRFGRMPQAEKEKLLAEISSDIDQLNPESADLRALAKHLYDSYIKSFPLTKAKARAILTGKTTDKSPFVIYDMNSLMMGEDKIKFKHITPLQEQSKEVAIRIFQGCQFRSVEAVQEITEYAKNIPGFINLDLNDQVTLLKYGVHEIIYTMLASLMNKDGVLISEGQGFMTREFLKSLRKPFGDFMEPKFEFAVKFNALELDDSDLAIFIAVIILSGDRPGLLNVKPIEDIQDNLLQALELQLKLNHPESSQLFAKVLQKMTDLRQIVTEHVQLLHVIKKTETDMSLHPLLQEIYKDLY
T2 sequence (Q05343 1-467 partner): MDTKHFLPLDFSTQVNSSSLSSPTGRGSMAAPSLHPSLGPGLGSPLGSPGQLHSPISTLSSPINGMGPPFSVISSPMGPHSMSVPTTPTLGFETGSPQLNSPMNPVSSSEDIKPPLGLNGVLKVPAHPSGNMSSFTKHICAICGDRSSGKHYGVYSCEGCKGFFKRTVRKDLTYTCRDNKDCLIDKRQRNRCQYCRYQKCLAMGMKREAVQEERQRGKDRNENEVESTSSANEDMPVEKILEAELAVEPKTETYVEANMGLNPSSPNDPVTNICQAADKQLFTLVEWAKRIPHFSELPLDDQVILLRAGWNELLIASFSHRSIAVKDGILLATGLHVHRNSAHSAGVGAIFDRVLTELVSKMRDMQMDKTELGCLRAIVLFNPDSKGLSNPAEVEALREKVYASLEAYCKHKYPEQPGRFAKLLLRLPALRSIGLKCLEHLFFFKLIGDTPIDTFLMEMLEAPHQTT
Description: Eight hours after the onset of MCAO the animals were euthanized by halothane inhalation and the brains quickly removed. Blocks of tissue 4 mm thick encompassing the rostral caudal extension of the infarct and the same area on the contralateral hemisphere were dissected free and snap frozen in liquid nitrogen. Nuclear extraction was performed and protein concentrations were determined using the Bradford method.
Ten micrograms of nuclear extract protein was incubated with 32P-labeled double stranded oligonucleotide (40 fmol) containing the PPAR responsive element sequences in rat acyl CoA oxidase promoter (5′-[…]-3′) (SEQ ID NO: 5). For competition assays, 100 fold radioinert (cold) competitor oligonucleotides were included in the reaction mixture. Interference assays with antibody to PPARγ (2 μg/reaction; SC-7273x, Santa Cruz Biotechnology,) were used to determine specificity of PPARγ-PPRE binding.
Nucleoprotein-oligonucleotide complexes were resolved electrophoretically on a 7% non-denaturing polyacrylamide gel. The gel was autoradiographed and optical density was assessed using Kodak Analysis (EDAS) 290 system.

[4] = test system: rats subjected to middle cerebral artery occlusion (MCAO); conditions: 90 minute MCAO
Text: Male Wistar rats, 250-350 g, were obtained from Charles River (Wilmington, Mass.). Animals were housed and cared for in the Animal Resource Center and allowed free access to food and water before and after surgery. All procedures were approved by the Institutional Animal Care and Use Committee of Case Western Reserve University.
A 4.0 nylon suture with a flame rounded tip was advanced through the internal carotid artery to occlude the MCA while cerebral blood flow was monitored using laser doppler (Perimed AB, Jarfalla, Sweden). At the time of reperfusion rats were again anesthetized and the suture removed with cerebral blood flow monitoring to ensure reperfusion. Arterial blood pressure, arterial blood gases and temperature were all monitored and controlled during the length of the procedure.
Control animals were injected with 0.1 ml DMSO.
Rats were euthanized by exposure to 5% halothane until breathing ceased. They then underwent intracardiac perfusion first with PBS and then with 4% paraformaldehyde. Brains were isolated and immersion fixed in 4% paraformaldehyde overnight. Tissue was cryoprotected in 30% sucrose in PBS. Twenty micron frozen sections were collected every […] beginning at the level of the forceps minor corpus callosum and extending through the hippocampus. Sections were stained with Thionin and the area of infarction measured using Bioquant computer software (R&M Biometrics, Nashville, Tenn.) by subtracting the uninfarcted tissue in the ischemic hemisphere from the volume of the contralateral hemisphere. This method corrects for post-ischemic edema.
Male Wistar rats, 250-350 g, were obtained from Charles River (Wilmington, Mass.). […] Animals were housed and cared for in the Animal Resource Center and allowed free access to food and water before and after surgery. […] The tail artery was exposed and cannulated to measure mean arterial blood pressure and to obtain blood for blood gas measurements during surgery. Animals in which normal temperature, blood pressure and gases could not be maintained were excluded from the study. MCAO was performed as previously described. Briefly, the bifurcation of the common carotid artery was exposed. The external carotid artery was isolated and a suture placed 0.5 cm from the bifurcation. Following electrocoagulation distal to the suture the external carotid was cut between the suture and the electrocoagulated segment. A suture was applied to the common carotid artery such that it could be removed later. A loop of suture was then placed under the internal carotid artery and the artery elevated to transiently occlude blood flow. A small nick was made in the wall of the external carotid artery. Through this nick a 22 mm length of 4.0 Ethicon suture, its tip rounded by heating near a flame, was gently threaded from the external to the internal carotid artery lumen to a distance of 18 mm from the bifurcation of the carotid. The thread was held in place with a suture around the stump of the external carotid artery and the suture around the internal carotid artery released. The catheter was removed from the tail artery and both incisions were closed. The rats were then allowed to recover from anesthesia. […] The neck incision was reopened and the 4.0 Ethicon suture removed. The suture that held it in place was tightened and the suture around the common carotid artery was removed. After confirmation of reperfusion by visual inspection, the incision was closed and the animal allowed to recover.
Twenty micron frozen sections of paraformaldehyde fixed brains were collected every 1000 μm beginning at the level of the forceps minor corpus callosum and extending through the hippocampus. The slides were stained with Thionin. The sections were then trans-illuminated and the image transmitted to a computer screen.

## Nitrolinoleic acid
PPARγ
  Ki: > 1000 nM

## CCCCC[C@H](O)/C=C/[C@H]1C(=O)C=C[C@@H]1C/C=C\CCCC(=O)O [prostaglandin J2]
Hemorrhagic stroke
  benefit in hemorrhagic stroke: beneficial in hemorrhagic stroke

## Cc1c(C)c2c(c(C)c1O)CCC(C)(COc1ccc(CC3SC(=O)NC3=O)cc1)O2 (single isomer, unassigned; (+)) [troglitazone, (+)-5[[4-[(3,4-dihydro-6-hydroxy-2,5,7,8-tetramethyl-2H-1-benzopyran-2-yl)methoxy]phenyl]methyl]-2,4thiazolidinedione]
[1]
  neuroprotection in rodent models of cerebral ischemia: effective neuroprotective agents
[2]
  cell death following glutamate exposure: reduces cell death
  low-potassium-induced apoptosis: suppresses low-potassium-induced apoptosis
Rat cerebellum
  cell death in rat cerebellum: reduces cell death

## CN(CCOc1ccc(CC2SC(=O)NC2=O)cc1)c1ccccn1 (centres unmarked) [rosiglitazone, 5-[4-[2-(N-methyl-N-(2-pyridyl)amino]ethoxy]benzyl]thiazolidine-2,4-dione]
LPL mRNA
  increase in LPL mRNA levels within the ischemic hemisphere: 254%
[3]
  physiologic parameters (temperature, arterial blood gases, blood pressure, cerebral blood flow) versus vehicle: no differences in physiologic parameters
ICAM mRNA
  ICAM mRNA compared with vehicle treated rats: significant reduction in ICAM mRNA
PPARγ-PPRE binding
  PPARγ-PPRE binding (densitometry), in words: significantly increase PPARγ-PPRE binding
PPARγ-PPRE binding; listed as Rosiglitazone
  PPARγ-PPRE binding (densitometry), in words: increased DNA binding in both the ischemic and the non-ischemic hemispheres

## CCCCCCCCCCCCCCCCOC[C@H](COP(=O)([O-])OCC[N+](C)(C)C)OC(=O)CCCCCCCC(=O)O [hexadecyl azelaoyl phosphatidyicholine]
PPARγ
  Kd: ~40 nM

## O=C(Nc1ccncc1)c1cc([N+](=O)[O-])ccc1Cl [T0070907]
[4]; T0070907 24 h before and at time of MCAO
  mean absolute infarction volume: 176 mm³
[4]; panel B
  animals that died: one animal

## CCCCC/C=C/C=C1/C(=O)C=C[C@@H]1C/C=C\CCCC(=O)O [15-deoxy-D12,14-prostaglandin J2]
Rat cerebellum
  cell death in rat cerebellum: reduces cell death
PPARγ
  concentrations at which it binds PPARγ: 2 to 5 µM

## CC(C)Cc1ccc(C(C)C(=O)O)cc1 (centres unmarked) [ibuprofen]
Rat cerebellum
  cell death in rat cerebellum: reduces cell death
